Like-named read-outs stand apart in the source and are kept apart here.
Experiments:
Chochliobolus miyabeanus = experiment: Effect on Rice brown spot (preventive spray test); type: in vivo; conditions: 7 days after inoculation
Pyricularia oryzae = type: in vivo; conditions: Rice blast, 7 days after inoculation
Erysiphe graminis = experiment: Effects on Barley powdery mildew (preventive spray test); type: in vivo; conditions: lesions counted seven days after inoculation
Puccinia recondita = experiment: Effect on Wheat brown rust (preventive spray test); type: in vivo; conditions: 7 days after inoculation
Rhizoctonia solani = experiment: Effect on Rice sheath blight (preventive spray test); conditions: 10 days after inoculation
[1] = tested on: Psecidoperonospora cubensis; experiment: Effect on Cucumber downy mildew (preventive spray test); type: in vivo; conditions: 7 days after inoculation
Phytophthora infestans = type: in vivo; conditions: Tomato late blight, 5 days after inoculation
Puccinia recondite = experiment: Penetration and translocation in wheat leaves (covered leaf tip, brown rust); type: in vivo
[2] = tested on: Pseudoperonospora cubenis; experiment: Penetration and translocation in cucumber leaf (drop on back of leaf, downy mildew); type: in vivo; conditions: 10 μl drop on back of leaf, conc. of active ingredient 200 ppm, disease-free area 5 days after the spraying
Experimental: Four points were marked at random on the first leaf of each cucumber seedling (variety: Shogoin aonaga fushinari) in two-leaf stage in each pot having a diameter of 6 cm. […] The leaf was kept in a greenhouse for one day and then uniformly inoculated with a zoospore suspension of Pseudoperonospora cubenis by means of a spray gun, then left to stand in a high-humidity room at 24° C. for 24 hours, and kept in a greenhouse. The area of the disease-free part 5 days after the spraying was represented in terms of the index.
3: At least 40% of the area of the leaf was free from the disease.
2: 20 to 40% of the area of the leaf was free from the disease.
1: An area larger than the spot of the drop but smaller than 20% of the area of the leaf was free from the disease.
0: Only the spot of the drop was free from the disease.

Botrytis cinerea = experiment: Effect on Cucumber gray mold (cotyledon paper disc test); type: in vivo; conditions: 3 days after inoculation
[3] = conc. of active ingredient 20 ppm
[4] = conc. of active ingredient 100 ppm
[5] = conc. of active ingredient 200 ppm
[6] = conc. of active ingredient 4 ppm

Structure (SMILES) | Preventive rate (%) (Chochliobolus miyabeanus; [3]) | Preventive rate (%) (Chochliobolus miyabeanus; [4]) | Preventive rate (%) (Pyricularia oryzae; [3]) | Preventive rate (%) (Pyricularia oryzae; [4]) | Preventive rate (%) (Erysiphe graminis; [3]) | Preventive rate (%) (Erysiphe graminis; [4]) | Preventive rate (%) (Puccinia recondita; [3]) | Preventive rate (%) (Puccinia recondita; [4]) | melting point | Preventive rate (%) (Rhizoctonia solani; [3]) | Preventive rate (%) (Rhizoctonia solani; [4]) | Preventive rate (%) [1, 3] | Preventive rate (%) [1, 4] | Preventive rate (%) (Phytophthora infestans; [3]) | Preventive rate (%) (Phytophthora infestans; [4]) | Number of lesions formed within the mark to the tip (Puccinia recondite; [5]) | Preventive rate (%) (Puccinia recondite; [5]) | Rate of the translocation perfect preventive conc. (%) (Puccinia recondite; [5]) | Index [2] | Preventive rate (%) (Botrytis cinerea; [3]) | further results
CON=C1COc2cc(OCc3ccccc3/C(=N\OC)C(=O)OC)ccc21 [a-4, (E) methyl methoxyimino-[2-(3-methoxyimino-2,3-dihydrobenzofuran-6-yloxymethyl)-phenyl]acetate] | 75% | 80% | 86% | 90% | 93% | 100% | 94% | 98% | 108 to 110 °C | 93% | 92% | 94% | 94% |  |  |  |  |  |  |  | 
CNC(=O)/C(=N/OC)c1ccccc1COc1ccc2c(c1)OCC2=NOC [a-5, (E) methoxyimino-[2-(3-methoxyimino-2,3-dihydro-benzofuran-6-yloxymethyl)phenyl]-N-methyl-acetamide] | 89% | 96% | 90% | 96% | 95% | 100% | 100% | 100% | 143 to 145 °C | 70% | 84% | 88% | 94% | 97% | 100% | 0 | 100% | 100% | 3 (At least 40% of the area of the leaf was free from the disease.) |  | 
CON=C1COc2cc(OCc3ccccc3N(OC)C(=O)OC)ccc21 [a-7, methyl N-[2-(3-methoxyimino-2,3-dihydro-benzofuran-6-yloxymethyl)-phenyl]-N-methoxycarbamate] |  |  |  |  |  |  | 99% | 100% | 102 to 103 °C |  |  | 94% | 97% |  |  |  |  |  |  | 56% | Preventive rate (%) (Botrytis cinerea; [4]): 97%
CNC(=O)N(OC)c1ccccc1COc1ccc2c(c1)OCC2=NOC [a-8, N-[2-(3-methoxyimino-2,3-dihydrobenzofuran-6-yloxymethyl)phenyl]-N-methoxy-N′-methylurea] |  |  |  |  |  |  | 99% | 100% | 109 to 112 °C |  |  | 88% | 94% |  |  |  |  |  |  |  | Preventive rate (%) [1, 6]: 75%
CNC(=O)/C(=N/OC)c1ccccc1COc1ccc2c(c1C)OCC2=NOC [a-16] | 95% | 98% | 89% | 96% | 100% | 100% | 100% | 100% |  | 50% | 92% | 100% | 100% | 97% | 100% | 0 | 100% | 100% | 3 (At least 40% of the area of the leaf was free from the disease.) | 84% | Preventive rate (%) (Chochliobolus miyabeanus; [6]): 75%; Preventive rate (%) (Pyricularia oryzae; [6]): 86%; Preventive rate (%) (Phytophthora infestans; [6]): 91%; Preventive rate (%) (Botrytis cinerea; [6]): 42%; Preventive rate (%) (Botrytis cinerea; [4]): 87%; Preventive rate (%) (Puccinia recondita; [6]): 100%; Preventive rate (%) [1, 6]: 100%
CNC(=O)/C(=N/OC)c1ccccc1COc1cc2c(cc1C)C(=NOC)CO2 [a-27] | 77% | 83% | 77% | 82% | 100% | 100% | 100% | 100% |  |  |  |  |  | 95% | 95% | 0 | 100% | 100% |  |  | Preventive rate (%) (Phytophthora infestans; [6]): 95%; Preventive rate (%) (Erysiphe graminis; [6]): 100%; Preventive rate (%) (Puccinia recondita; [6]): 98%
CCON=C1COc2cc(OCc3ccccc3/C(=N\OC)C(=O)NC)ccc21 [a-37, (E) methoxyimino-[2-(3-ethoxyimino-2,3-dihydrobenzofuran-6-yloxymethyl)-phenyl]-N-methyl-acetamide] |  |  |  |  |  |  | 99% | 100% | 110 to 113 °C |  |  | 100% | 100% |  |  |  |  |  |  | 100% | Preventive rate (%) (Botrytis cinerea; [4]): 100%
CNC(=O)C(=NOC)c1ccccc1COc1ccc2c(c1)OCCC2=NOC [c-5] | 35% | 100% | 97% | 99% |  |  | 96% | 100% |  | 39% | 89% | 100% | 100% | 88% | 94% | 0 | 100% | 100% | 3 (At least 40% of the area of the leaf was free from the disease.) |  | 
COC=C(C(=O)OC)c1ccccc1COc1ccc2c(c1C)OCCC2=NOC [c-13] | 93% | 100% | 94% | 100% | 100% | 100% | 100% | 100% |  |  |  | 100% | 100% | 100% | 100% |  |  |  |  | 49% | Preventive rate (%) (Chochliobolus miyabeanus; [6]): 82%; Preventive rate (%) (Phytophthora infestans; [6]): 95%; Number of lesions formed within the mark to the tip (Puccinia recondite; [4]): 0; Preventive rate (%) (Puccinia recondite; [4]): 100%; Rate of the translocation perfect preventive conc. (%) (Puccinia recondite; [4]): 100%; Preventive rate (%) (Erysiphe graminis; [6]): 100%; Preventive rate (%) (Botrytis cinerea; [4]): 58%; Preventive rate (%) (Puccinia recondita; [6]): 100%; Preventive rate (%) [1, 6]: 100%
CNC(=O)C(=NOC)c1ccccc1COc1ccc2c(c1)CCC2=NOC [e-5] | 84% | 90% | 97% | 100% | 95% | 100% | 99% | 100% |  |  |  | 100% | 100% | 95% | 98% | 0 | 100% | 100% | 3 (At least 40% of the area of the leaf was free from the disease.) |  | 
CNC(=O)C(=NOC)c1ccccc1COc1cc2c(cc1C)C(=NOC)CC2 [e-27] | 99% | 99% |  |  | 99% | 100% | 100% | 100% |  |  |  | 100% | 100% | 100% | 100% |  |  |  |  |  | Preventive rate (%) (Chochliobolus miyabeanus; [6]): 96%; Preventive rate (%) (Phytophthora infestans; [6]): 100%; Number of lesions formed within the mark to the tip (Puccinia recondite; [4]): 0; Preventive rate (%) (Puccinia recondite; [4]): 100%; Rate of the translocation perfect preventive conc. (%) (Puccinia recondite; [4]): 100%; Preventive rate (%) (Erysiphe graminis; [6]): 99%; Preventive rate (%) (Puccinia recondita; [6]): 100%; Preventive rate (%) [1, 6]: 100%

— US6399542B1, “Alkoxyimino-substituted bicyclic compounds compositions containing the same and method of making such compounds” (Agro-Kanesho Co., Ltd., priority 1997, dated 2002)
